Reference: patent US11541032B2, “Composition containing sumo inhibitor and application” (CHINA PHARMACEUTICAL UNIVERSITY, priority 2018, dated 2023)

Legend:
Type in all cases: cell-based, Rat
FXR signaling pathway = test: RT-PCR of FXR target gene Shp mRNA in quiescent and TGF-β-activated HSC-T6 cells; conditions: for mRNA expression of Shp: activated HSCs, in the presence of SUMO inhibitor SP; for mRNA level of Shp: activated state (TGF-β1 incubation) HSC-T6 cells; for mRNA level of Shp / mRNA level of Shp, an FXR target gene: agonist 5 μM, 12 h; for mRNA level of Shp, an FXR target gene: quiescent HSC-T6 cells
Procedure: (§1) HSC-T6 cells, seeded and cultured in a proper density, were treated with TGF-β([…]) or OCA (5 μM) or GW40064 (5 μM) or WAY-362450 (5 μM) for 12 h before collection.
1) After the cells were cleaned by PBS, 800 μl of a Trizol reagent was added. After repeated blowing by a pipette, the cells were transferred into an EP tube to be subjected to still standing for 5 min at the room temperature.
2) 160 μl of chloroform was added, and violent oscillation was performed for 15 sec. After still standing for 5 min at the room temperature, 12000 g centrifugation was performed for 15 min. The sample was divided into three layers including a bottom layer being a yellow organic phase, an upper layer being a colorless water phase, and a middle layer.
3) 300 μl of the upper layer water phase was carefully transferred into a new tube. 300 μl of isopropanol was added. After uniform mixing through reversing, still standing was performed for 10 min at the room temperature. Then, 12000 g centrifugation was performed for 10 min. Supernatant was abandoned.
4) RNA precipitates were washed by 1.0 ml of precooled 75% ethanol. Then, 12000 g centrifugation was performed for 5 min. Supernatant was abandoned to obtain total RNA. Redissolution was performed by 10 μl of DEPC water. After quantification, dilution was performed to 0.5 μg/μl.
(§2) RNA solutions and kit components were prepared into a system with a total volume of 20 μl according to a system proportion required in the specification, and a program temperature was set for reverse transcription.
Stage 1: reverse transcription at 37° C. for 15 min.
Stage 2: denaturation at 85° C. for 5 s.
Stage 1: initial denaturation at 95° C. for 1 min.
(§3) Stage 2: PCR reaction at 95° C. for 15 sec; for example, at 60° C. for 30 sec for 40 Cycles; and at 72° C. for 30 sec.
Stage 3: dissociation curve analysis at 65 to 95° C., 0.5° C./5s.
(§4) Specific methods were the same as those in section 2.1 in Embodiment 1.
(§5) Specific methods were the same as those in section 2.2 in Embodiment 1.

[1] = tested on: activated HSCs (HSC-T6 cells); test: RT-PCR of fibrotic-related gene Acta2 mRNA in activated HSCs; conditions: after administration of SP
Procedure: as §1, §2, §3, §4, §5

FXR proteins = test: SUMOylation ELISA of FXR proteins in activated HSCs
Procedure: as §1
After cell nuclear proteins were extracted according to specification requirements of an ELISA detection kit, primary antibodies and nuclear proteins of a cell sample were incubated for 60 min at the room temperature in a plate hole. SUMO specific detection antibodies were then supplemented and added according to the specification requirements. A color sensitizer was further added for color development. Then, absorbance at 655 nm was fast read. Relative quantitative analysis was performed.
as §4
Specific methods were the same as those in section 2.3 in Embodiment 1.

Compound	mRNA expression of Shp (FXR signaling pathway)	mRNA level of Shp (FXR signaling pathway)	mRNA level of Shp, an FXR target gene (FXR signaling pathway)	expression of fibrotic-related gene Acta2 [1]	SUMOylation level of FXR proteins (FXR proteins)
CC(C)c1onc(-c2c(Cl)cccc2Cl)c1COc1ccc(/C=C/c2cccc(C(=O)O)c2)c(Cl)c1 [GW4064]	significantly up-regulated	none of the FXR agonists OCA, GW4064 and WAY-362450 could significantly up-regulate	could significantly up-regulate	significantly reduced	
CN[C@@H]1[C@H](O)[C@H](NC)[C@H]2O[C@@]3(O)C(=O)C[C@@H](C)O[C@H]3O[C@@H]2[C@H]1O [SP, spectinomycin]					could significantly reduce
CC(C)OC(=O)C1=CN(C(=O)c2ccc(F)c(F)c2)CC(C)(C)c2c1[nH]c1ccccc21 [WAY-362450]	significantly up-regulated	none of the FXR agonists OCA, GW4064 and WAY-362450 could significantly up-regulate	could significantly up-regulate	significantly reduced	
ginkgolic acid [GA]					could significantly reduce
